# According to US20250262201A1, “COMPOUNDS AND METHODS USEFUL FOR STABILIZING PHENYLALANINE HYDROXYLASE MUTATIONS” (Agios Pharmaceuticals, Inc., priority 2022, published 2025):
# Target: T1, human PAH with the R408W mutation (Homo sapiens, UniProt P00439, R408W)
# T1 construct: expressed in transfected cells
# T1 sequence (P00439 1-452 R408W): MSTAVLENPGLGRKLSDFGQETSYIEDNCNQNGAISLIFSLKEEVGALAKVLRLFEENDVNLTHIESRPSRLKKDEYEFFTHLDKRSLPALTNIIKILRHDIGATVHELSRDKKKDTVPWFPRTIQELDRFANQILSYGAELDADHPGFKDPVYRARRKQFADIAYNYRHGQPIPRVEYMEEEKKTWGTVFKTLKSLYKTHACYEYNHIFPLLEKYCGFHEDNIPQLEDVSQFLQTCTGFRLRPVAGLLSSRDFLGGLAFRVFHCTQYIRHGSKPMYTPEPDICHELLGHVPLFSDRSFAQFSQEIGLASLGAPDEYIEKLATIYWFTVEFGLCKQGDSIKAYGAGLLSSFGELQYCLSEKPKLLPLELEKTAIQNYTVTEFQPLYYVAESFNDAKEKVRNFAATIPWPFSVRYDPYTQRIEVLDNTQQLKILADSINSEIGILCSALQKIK
# Assay: Cell Based Phenylalanine Flux Assay
# Parameters: scale not given here
# Conditions: A375 R408W cells, 24 hrs with compound, then 20 μM sepiapterin and 800 μM 13C9,15N-Phenylalanine for 4 hours; 13C-Tyrosine by LC-MS; average where tested multiple times
row,SMILES,AC50
1,"Cc1nc(C(F)(F)F)c(C(=O)N2CCc3nc[nH]c3[C@H]2c2cn3ccccc3n2)o1 (single isomer, unassigned)","E, E"
2,O=C(c1oc(-c2ccncn2)nc1C(F)F)N1CCc2[nH]cnc2C1c1ncc2ccccc2n1 (centres unmarked),"E, E"

# Same assay, conditions: A375 R408W cells, 24 hrs with compound, then 20 μM sepiapterin and 800 μM 13C9,15N-Phenylalanine for 4 hours; 13C-Tyrosine by LC-MS; average where tested multiple times; read-out: AC50
row,SMILES,AC50
1,CC1CN(C(=O)c2nnc(N3CCN(C)CC3)o2)C(c2cc3ccccc3cn2)c2nc[nH]c21 (centres unmarked),1000 to 5000 nM
2,COC(=O)N1CC(C(=O)N2CCc3[nH]cnc3[C@H]2c2cc3ccccc3cn2)C1,1000 to 5000 nM
3,Cc1nc(C(C)(C)S(C)(=O)=O)oc1C(=O)N1CCc2[nH]cnc2C1c1ccc2ccccc2n1 (centres unmarked),1000 to 5000 nM
4,O=C(c1ocnc1C(F)F)N1CCc2nc[nH]c2C1c1cn2ccccc2n1 (centres unmarked),1000 to 5000 nM
5,O=C(CCc1nccs1)N1CCc2[nH]cnc2C1c1cc2ccccc2nn1 (centres unmarked),1000 to 5000 nM

# More lines, now with the values ahead:
row,AC50,SMILES
1,> 5000 nM,O=C(c1nnc(CCNC2CC2)o1)N1CCc2[nH]cnc2C1c1ccc2ccccc2n1 (centres unmarked)
2,1000 to 5000 nM,O=C(c1nnc(-c2cn[nH]c2)o1)N1CCc2[nH]cnc2C1c1ncc2ccccc2n1 (centres unmarked)
3,1000 to 5000 nM,O=C(c1ccn[nH]1)N1CCc2[nH]cnc2C1c1ccc2ccccc2n1 (centres unmarked)
4,> 5000 nM,CN(C)c1nnc(C(=O)N2CCc3[nH]cnc3C2c2ncc3ccccc3n2)o1 (centres unmarked)
5,> 5000 nM,Cc1nnc(C(=O)N2CCc3[nH]cnc3C2c2ncc3ccccc3n2)o1 (centres unmarked)
6,> 5000 nM,Cc1nc(-c2cnn(C)c2)oc1C(=O)N1CCc2[nH]cnc2C1c1ncc2ccccc2n1 (centres unmarked)
7,1000 to 5000 nM,CN(C)Cc1nnc(C(=O)N2CCc3[nH]cnc3C2c2ccc3ccccc3n2)o1 (centres unmarked)

# Same assay, conditions: A375 cells expressing human R408W PAH; 24 hrs compound incubation; 13C-Tyrosine by LC-MS; average where tested multiple times; read-out: AC50
row,SMILES,AC50
1,"C[C@H]1CN(C(=O)c2oc(C(C)(C)O)nc2C2CC2)[C@@H](c2cc3ccccc3cn2)c2nc[nH]c21 [Example 400, (4-cyclopropyl-2-(2-hydroxypropan-2-yl)oxazol-5-yl)((4S,7S)-4-(isoquinolin-3-yl)-7-methyl-6,7-dihydro-1H-imidazo[4,5-c]pyridin-5(4H)-yl)methanone]",1000 to 5000 nM
2,"O=C(c1ocnc1C1CC1)N1CCc2[nH]cnc2[C@@H]1c1cn2ccccc2n1 [Example 243, (S)-(4-cyclopropyloxazol-5-yl)(4-(imidazo[1,2-a]pyridin-2-yl)-6,7-dihydro-1H-imidazo[4,5-c]pyridin-5(4H)-yl)methanone]",1000 to 5000 nM
3,"CC(C)(O)c1nc(C(F)F)c(C(=O)N2CCc3[nH]cnc3C2c2ccc3ccccc3n2)o1 (stereo in doubt) [Example 92, (S)-(4-(difluoromethyl)-2-(2-hydroxypropan-2-yl)oxazol-5-yl)(4-(quinolin-2-yl)-6,7-dihydro-1H-imidazo[4,5-c]pyridin-5(4H)-yl)methanone]",1000 to 5000 nM
4,"COCc1nc(C(F)F)c(C(=O)N2CCc3[nH]cnc3C2c2ccc3ccccc3n2)o1 (stereo in doubt) [Example 77, (R)-(4-(difluoromethyl)-2-(methoxymethyl)oxazol-5-yl)(4-(quinolin-2-yl)-6,7-dihydro-1H-imidazo[4,5-c]pyridin-5(4H)-yl)methanone]",< 500 nM
5,"Cc1ncoc1C(=O)N1CC2(CC2)c2[nH]cnc2[C@H]1c1cc2ccccc2cn1 [Example 493, (R)-(4′-(isoquinolin-3-yl)spiro[cyclopropane-1,7′-imidazo[4,5-c]pyridin]-5′(1′H,4′H,6′H)-yl)(4-methyloxazol-5-yl)methanone]",< 500 nM
6,"CC(C)(F)c1ccc2c(C(=O)N3CCc4[nH]cnc4[C@H]3c3cc4ccccc4cn3)cnn2c1 [Example 344, (R)-(6-(2-fluoropropan-2-yl)pyrazolo[1,5-a]pyridin-3-yl)(4-(isoquinolin-3-yl)-6,7-dihydro-1H-imidazo[4,5-c]pyridin-5(4H)-yl)methanone]",500 to 1000 nM
7,"O=C(N1CCc2[nH]cnc2C1c1ccc2ccccc2n1)C(F)(F)C1(O)CCC1 (stereo in doubt) [Example 55, (R)-2,2-difluoro-2-(1-hydroxycyclobutyl)-1-(4-(quinolin-2-yl)-6,7-dihydro-1H-imidazo[4,5-c]pyridin-5(4H)-yl)ethanone]",500 to 1000 nM
8,"CC(C)(C#N)c1nc(C(F)F)c(C(=O)N2CCc3[nH]cnc3C2c2ccc3ccccc3n2)o1 (stereo in doubt) [Example 128, (R)-2-(4-(difluoromethyl)-5-(4-(quinolin-2-yl)-4,5,6,7-tetrahydro-1H-imidazo[4,5-c]pyridine-5-carbonyl)oxazol-2-yl)-2-methylpropanenitrile]",< 500 nM
9,"Cc1nc(C(C)(C)O)oc1C(=O)N1CCc2[nH]cnc2[C@@H]1c1ccc2ccccc2n1 (single isomer, unassigned) [Example 14]",> 5000 nM
10,"Cc1ncoc1C(=O)N1CC2(CC2)c2[nH]cnc2[C@@H]1c1cc2ccccc2cn1 [Example 492, (S)-(4′-(isoquinolin-3-yl)spiro[cyclopropane-1,7′-imidazo[4,5-c]pyridin]-5′(1′H,4′H,6′H)-yl)(4-methyloxazol-5-yl)methanone]",> 5000 nM
11,"FC(F)(F)c1cnc(N2CCc3[nH]cnc3C2c2ccc3ccccc3n2)nc1 (stereo in doubt) [Example 30, (S)-2-(5-(5-(trifluoromethyl)pyrimidin-2-yl)-4,5,6,7-tetrahydro-1H-imidazo[4,5-c]pyridin-4-yl)quinoline]",> 5000 nM
12,"Cc1nc(C(C)(C)O)oc1C(=O)N1C[C@H](C)c2[nH]cnc2[C@@H]1c1cc2ccccc2cn1 [Example 390, (2-(2-hydroxypropan-2-yl)-4-methyloxazol-5-yl)((4S,7S)-4-(isoquinolin-3-yl)-7-methyl-6,7-dihydro-1H-imidazo[4,5-c]pyridin-5(4H)-yl)methanone]",> 5000 nM
13,"C[C@H]1CN(C(=O)c2cnc(-c3ccccn3)o2)[C@@H](c2cc3ccccc3cn2)c2nc[nH]c21 [Example 382, ((4S,7S)-4-(isoquinolin-3-yl)-7-methyl-6,7-dihydro-1H-imidazo[4,5-c]pyridin-5(4H)-yl)(2-(pyridin-2-yl)oxazol-5-yl)methanone]",> 5000 nM

# Further lines, results first:
row,AC50,SMILES
1,500 to 1000 nM,"O=C(c1nnc(-c2cc(C(F)(F)F)ccn2)o1)N1CCc2[nH]cnc2C1c1ccc2ccccc2n1 (stereo in doubt) [Example 107, (R)-(4-(quinolin-2-yl)-6,7-dihydro-1H-imidazo[4,5-c]pyridin-5(4H)-yl)(5-(4-(trifluoromethyl)pyridin-2-yl)-1,3,4-oxadiazol-2-yl)methanone]"
2,> 5000 nM,O=C(c1nnc(-c2c(F)cccc2F)o1)N1CCc2[nH]cnc2[C@@H]1c1ccc2ccccc2n1 [Example 24]
3,500 to 1000 nM,"O=C(c1nnc(-c2cc[nH]n2)o1)N1CCc2[nH]cnc2[C@H]1c1ncc2ccccc2n1 [Example 175, (S)-(5-(1H-pyrazol-3-yl)-1,3,4-oxadiazol-2-yl)(4-(quinazolin-2-yl)-6,7-dihydro-1H-imidazo[4,5-c]pyridin-5(4H)-yl)methanone]"
4,< 500 nM,"O=C(c1nnc(-c2ccn(C(F)F)n2)o1)N1CCc2[nH]cnc2[C@H]1c1cc2ccccc2cn1 [Example 426, (R)-(5-(1-(difluoromethyl)-1H-pyrazol-3-yl)-1,3,4-oxadiazol-2-yl)(4-(isoquinolin-3-yl)-6,7-dihydro-1H-imidazo[4,5-c]pyridin-5(4H)-yl)methanone]"
5,> 5000 nM,"Cc1nc(-c2cnn(C)c2)oc1C(=O)N1CCc2[nH]cnc2C1c1ccc2ccccc2n1 (stereo in doubt) [Example 25, (S)-(4-methyl-2-(1-methyl-1H-pyrazol-4-yl)oxazol-5-yl)(4-(quinolin-2-yl)-6,7-dihydro-1H-imidazo[4,5-c]pyridin-5(4H)-yl)methanone]"
6,500 to 1000 nM,"Cc1nnc(C(=O)N2CCc3[nH]cnc3[C@H]2c2cc3ccccc3cn2)s1 [Example 361, (R)-(4-(isoquinolin-3-yl)-6,7-dihydro-1H-imidazo[4,5-c]pyridin-5(4H)-yl)(5-methyl-1,3,4-thiadiazol-2-yl)methanone]"
7,> 5000 nM,"Cn1cc(-c2nnc(C(=O)N3CCc4[nH]cnc4C3c3ccc4ccccc4n3)o2)cn1 (stereo in doubt) [Example 48, (S)-(5-(1-methyl-1H-pyrazol-4-yl)-1,3,4-oxadiazol-2-yl)(4-(quinolin-2-yl)-6,7-dihydro-1H-imidazo[4,5-c]pyridin-5(4H)-yl)methanone]"
8,> 5000 nM,"Fc1ccc(-c2nnc(N3CCc4[nH]cnc4C3c3ccc4ccccc4n3)o2)cc1 (stereo in doubt) [Example 19, (S)-2-(4-fluorophenyl)-5-(4-(quinolin-2-yl)-6,7-dihydro-1H-imidazo[4,5-c]pyridin-5(4H)-yl)-1,3,4-oxadiazole]"
9,< 500 nM,"CC(C)(C)c1ncc(C(=O)N2CCc3[nH]cnc3C2c2ccc3ccccc3n2)s1 (stereo in doubt) [Example 3, (R)-(2-(tert-butyl)thiazol-5-yl)(4-(quinolin-2-yl)-6,7-dihydro-1H-imidazo[4,5-c]pyridin-5(4H)-yl)methanone]"
10,> 5000 nM,"O=C(c1nnc(-c2cnccn2)o1)N1CCc2[nH]cnc2[C@@H]1c1ncc2ccccc2n1 [Example 191, (R)-(5-(pyrazin-2-yl)-1,3,4-oxadiazol-2-yl)(4-(quinazolin-2-yl)-6,7-dihydro-1H-imidazo[4,5-c]pyridin-5(4H)-yl)methanone]"
11,500 to 1000 nM,"O=C(c1nnc(C2CC(F)(F)C2)o1)N1CCc2[nH]cnc2[C@H]1c1ncc2ccccc2n1 [Example 151, (S)-(5-(3,3-difluorocyclobutyl)-1,3,4-oxadiazol-2-yl)(4-(quinazolin-2-yl)-6,7-dihydro-1H-imidazo[4,5-c]pyridin-5(4H)-yl)methanone]"
